Results reported in patent US20250332173A1, “COMPOUNDS AND METHODS FOR MODULATING NUCLEIC ACID SPLICING” (REMIX THERAPEUTICS INC., priority 2021, published 2025).
Read-outs that look alike come from different tables or passages of the source.

Legend:
MYB mRNA = test: RT-qPCR splicing assay, MYB canonical junction (CJ) and alternative junction (AJ) mRNA; assay type: cell-based, human; details: Homo sapiens; for AC50: increase in MYB alternative junction (AJ) mRNA, read-out: MYB AJ AC50
Method in brief: (§1)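 A673 cells (normalized to PPIA) or K562 cells (normalized to GAPDH or GUSB) were treated 24 h at 37 °C with an 11-point 3-fold dilution series, top 10 uM, DMSO ≤0.25%. Cell lysates went to one-step RT-qPCR measuring canonical- and alternative-junction MYB or HTT transcripts.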

HTT mRNA = test: RT-qPCR splicing assay, HTT canonical junction (CJ) and alternative junction (AJ) mRNA; assay type: cell-based, human; details: Homo sapiens; for AC50: increase in HTT alternative junction (AJ) mRNA, read-out: HTT AJ AC50
Method in brief: as §1

[1] = Table 5 panel, canonical junction qPCR, compound concentration having 50% response in CJ decrease, read-out: MYB IC50 (decrease in CJ mRNA levels)
[2] = decrease in MYB canonical junction (CJ) mRNA, RT-qPCR, read-out: MYB CJ IC50
[3] = decrease in HTT canonical junction (CJ) mRNA, RT-qPCR, read-out: HTT CJ IC50
[4] = Table 5 panel, canonical junction qPCR, compound concentration having 50% response in CJ decrease, read-out: HTT IC50 (decrease in CJ mRNA levels)

Row | Structure (SMILES) | IC50 (MYB mRNA; [1]) | IC50 (MYB mRNA; [2]) | AC50 (MYB mRNA; RT-qPCR) | IC50 (HTT mRNA; [3]) | AC50 (HTT mRNA; RT-qPCR) | IC50 (HTT mRNA; [4])
1 | Cc1cn2cc(-c3cc(O)c4c(=O)n(C5CCNCC5)cnc4c3)cc(F)c2n1 [Compound 587, 7-{8-fluoro-2-methylimidazo[1,2-a]pyridin-6-yl}-5-hydroxy-3-(piperidin-4-yl)quinazolin-4-one] | < 100 nM | < 100 nM | < 100 nM | 100 to 1000 nM | 100 to 1000 nM | 100 to 1000 nM
2 | Cc1cn2cc(-c3cc(F)c4c(=O)n(C5CCNCC5)cnc4c3)cc(C#N)c2n1 [Compound 588] | 100 to 1000 nM | 1000 to 10000 nM | 100 to 1000 nM | 1000 to 10000 nM | 1000 to 10000 nM | 1000 to 10000 nM
3 | Cc1cn2nc(-c3cc(F)c4c(=O)n(C5CCNC5)cnc4c3)cc(C)c2n1 (stereo not drawn) [Compound 589, 7-{2,8-dimethylimidazo[1,2-b]pyridazin-6-yl}-5-fluoro-3-(pyrrolidin-3-yl)quinazolin-4-one] | 1000 to 10000 nM | 1000 to 10000 nM | 1000 to 10000 nM | > 10000 nM | > 10000 nM | > 10000 nM
4 | Cc1cn2nc(-c3cc(F)c4c(=O)n([C@@H]5CCN(C)C6(CC6)C5)ncc4c3)cc(C)c2n1 [Compound 637] | < 100 nM | < 100 nM | < 100 nM | < 100 nM | < 100 nM | < 100 nM
5 | Cc1cn2nc(-c3cc(F)c4c(=O)n([C@H]5CCN(C)C6(CC6)C5)ncc4c3)cc(C)c2n1 [Compound 638] | < 100 nM | 100 to 1000 nM | < 100 nM | < 100 nM | < 100 nM | < 100 nM
6 | Cc1cn2nc(-c3cc4ccn([C@@H]5CCNC5)c(=O)c4cc3O)cc(C)c2n1 [Compound 640, 6-(2,8-dimethylimidazo[1,2-b]pyridazin-6-yl)-7-hydroxy-2-[(3R)-pyrrolidin-3-yl]isoquinolin-1-one] | 100 to 1000 nM | 100 to 1000 nM | 100 to 1000 nM | 1000 to 10000 nM | 100 to 1000 nM | 100 to 1000 nM
7 | Cc1cn2nc(-c3cc4ccn([C@H]5CCNC5)c(=O)c4cc3O)cc(C)c2n1 [Compound 641, 6-(2,8-dimethylimidazo[1,2-b]pyridazin-6-yl)-7-hydroxy-2-[(3S)-pyrrolidin-3-yl]isoquinolin-1-one] | < 100 nM | 100 to 1000 nM | < 100 nM | 1000 to 10000 nM | 100 to 1000 nM | 100 to 1000 nM
8 | Cc1cn2cc(-c3cc(F)c4c(=O)n([C@@H]5C[C@@H](C)N[C@@H](C)C5)ccc4c3)cc(F)c2n1 [Compound 642, 2-[(2S,6R)-2,6-dimethyl-4-piperidyl]-8-fluoro-6-(8-fluoro-2-methyl-imidazo[1,2-a]pyridin-6-yl)isoquinolin-1-one] | 100 to 1000 nM | 100 to 1000 nM | 100 to 1000 nM | 1000 to 10000 nM | 100 to 1000 nM | 100 to 1000 nM
9 | Cc1cn2cc(-c3cc(F)c4c(=O)n([C@H]5CNC[C@@H]5F)ccc4c3)cc(F)c2n1 [Compound 644] | 100 to 1000 nM | 1000 to 10000 nM | 100 to 1000 nM | > 10000 nM | > 10000 nM | > 10000 nM
10 | Cc1cn2nc(-c3cc(N)c4c(=O)n([C@H]5CCNC5)ccc4c3)cc(C)c2n1 [Compound 645, 8-amino-6-(2,8-dimethylimidazo[1,2-b]pyridazin-6-yl)-2-[(3S)-pyrrolidin-3-yl]isoquinolin-1-one] | 1000 to 10000 nM | 1000 to 10000 nM | 1000 to 10000 nM | > 10000 nM | 1000 to 10000 nM | 1000 to 10000 nM
11 | Cc1cn2nc(-c3cc(N)c4c(=O)n([C@@H]5CCNC5)ccc4c3)cc(C)c2n1 [Compound 646, 8-amino-6-(2,8-dimethylimidazo[1,2-b]pyridazin-6-yl)-2-[(3R)-pyrrolidin-3-yl]isoquinolin-1-one] | > 10000 nM | 1000 to 10000 nM | > 10000 nM | > 10000 nM | > 10000 nM | > 10000 nM
12 | CNc1cc(-c2cc(C)c3nc(C)cn3n2)cc2ccn([C@H]3CCNC3)c(=O)c12 [Compound 647, 6-(2,8-dimethylimidazo[1,2-b]pyridazin-6-yl)-8-(methylamino)-2-[(3S)-pyrrolidin-3-yl]isoquinolin-1-one] | 1000 to 10000 nM | 1000 to 10000 nM | 1000 to 10000 nM | > 10000 nM | 1000 to 10000 nM | 1000 to 10000 nM
13 | CNc1cc(-c2cc(C)c3nc(C)cn3n2)cc2ccn([C@@H]3CCNC3)c(=O)c12 [Compound 648, 6-(2,8-dimethylimidazo[1,2-b]pyridazin-6-yl)-8-(methylamino)-2-[(3R)-pyrrolidin-3-yl]isoquinolin-1-one] | > 10000 nM | > 10000 nM | > 10000 nM | > 10000 nM | > 10000 nM | > 10000 nM
14 | CC(=O)Nc1cc(-c2cc(C)c3nc(C)cn3n2)cc2ccn([C@H]3CCNC3)c(=O)c12 [Compound 649, N-[6-(2,8-dimethylimidazo[1,2-b]pyridazin-6-yl)-1-oxo-2-[(3S)-pyrrolidin-3-yl]-8-isoquinolyl]acetamide] | 1000 to 10000 nM | 1000 to 10000 nM | 1000 to 10000 nM | 1000 to 10000 nM | 1000 to 10000 nM | 1000 to 10000 nM
15 | CC(=O)Nc1cc(-c2cc(C)c3nc(C)cn3n2)cc2ccn([C@@H]3CCNC3)c(=O)c12 [Compound 650, N-[6-(2,8-dimethylimidazo[1,2-b]pyridazin-6-yl)-1-oxo-2-[(3R)-pyrrolidin-3-yl]-8-isoquinolyl]acetamide] | > 10000 nM | > 10000 nM | > 10000 nM | > 10000 nM | > 10000 nM | > 10000 nM
16 | Cc1cn2cc(-c3cc(F)c4c(=O)n(C5CC(C)NC(C)C5)ccc4c3)cc(F)c2n1 (stereo not drawn) [Compound 651] | < 100 nM | < 100 nM | < 100 nM | 100 to 1000 nM | < 100 nM | < 100 nM
17 | Cc1cn2cc(-c3cc(F)c4c(=O)n([C@H]5CNC[C@H]5C)ccc4c3)cc(F)c2n1 [Compound 652, 8-fluoro-6-(8-fluoro-2-methyl-imidazo[1,2-a]pyridin-6-yl)-2-[(3R,4R)-4-methylpyrrolidin-3-yl]isoquinolin-1-one] | 1000 to 10000 nM | 1000 to 10000 nM | 1000 to 10000 nM | > 10000 nM | > 10000 nM | > 10000 nM
18 | Cc1cn2cc(-c3cc(F)c4c(=O)n([C@@H]5CNC[C@@H]5C)ccc4c3)cc(F)c2n1 [Compound 653, 8-fluoro-6-(8-fluoro-2-methyl-imidazo[1,2-a]pyridin-6-yl)-2-[(3S,4S)-4-methylpyrrolidin-3-yl]isoquinolin-1-one] | 1000 to 10000 nM | 1000 to 10000 nM | 1000 to 10000 nM | > 10000 nM | > 10000 nM | > 10000 nM
19 | Cn1cc2cc(-c3ncc4c(=O)n(C5CCNCC5)ccc4n3)c(O)c(F)c2n1 [Compound 1123] | < 100 nM | < 100 nM | < 100 nM | 100 to 1000 nM | < 100 nM | < 100 nM
